Measurements published in publication PMC10073347 (Nature chemistry, 2023).

Target: T1, SeMet CtdP (Penicillium citrinum, UniProt Z9QVB9HE69)
T1 sequence (Z9QVB9HE69 1-348): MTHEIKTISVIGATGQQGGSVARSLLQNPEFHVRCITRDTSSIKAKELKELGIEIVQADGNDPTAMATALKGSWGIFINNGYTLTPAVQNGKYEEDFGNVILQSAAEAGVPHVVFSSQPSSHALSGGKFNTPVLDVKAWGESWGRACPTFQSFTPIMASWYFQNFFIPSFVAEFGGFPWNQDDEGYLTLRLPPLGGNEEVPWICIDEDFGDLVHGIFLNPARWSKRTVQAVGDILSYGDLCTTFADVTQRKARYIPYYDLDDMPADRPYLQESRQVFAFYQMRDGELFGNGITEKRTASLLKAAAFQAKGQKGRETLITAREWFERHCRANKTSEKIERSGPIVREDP
Assay: X-ray crystal structure, […] Å, SeMet SAD
Type: binding
Settings: bound in all four chains; product 10 in chains A, B, D

## NC(=O)c1ccc[n+]([C@@H]2O[C@H](COP(=O)(O)OP(=O)(O)OC[C@H]3O[C@@H](n4cnc5c(N)ncnc54)[C@H](OP(=O)(O)O)[C@@H]3O)[C@@H](O)[C@H]2O)c1 [NADP^+]
  X-ray crystal structure, 2.5 Å, SeMet SAD: four chains (A-D) in the asymmetric unit, all in complex with NADP^+
